Assay results reported in patent US9771351B2, “Wnt signaling inhibitor” (KYOWA HAKKO KIRIN CO., LTD., priority 2013, dated 2017).

test system: T-cell factor (TCF)-luciferase reporter using Wnt pathway as index; test: Inhibitory activity against TCF-luciferase reporter using Wnt pathway as index (DLD-1/TCF-Luc cells); type: cell-based, human; settings: 1 μmol/L; DLD-1/TCF-Luc cells; luciferase activity after 18 hours
Protocol: Test Example 1: Inhibitory Activity Against T-Cell Factor (TCF)-Luciferase Reporter Using Wnt Pathway as Index
The inhibitory activity of test compounds against Wnt pathway was evaluated by the following method.
A human colorectal adenocarcinoma cell line DLD-1 (Japanese Collection of Research Bioresources) was cultured in RPMI-1640 medium (Gibco/Life Technologies, Inc.) containing 10% fetal bovine serum (Gibco/Life Technologies, Inc.), 10 mmol/L of a 4-(2-hydroxyethyl)-1-piperazineethanesulfonic acid (HEPES) buffer solution (Gibco/Life Technologies, Inc.), 1 mmol/L of a sodium pyruvate solution (Gibco/Life Technologies, Inc.), 4.5 g/L of a D-(+)-glucose solution (Sigma-Aldrich, Inc.), 100 units/mL penicillin (Gibco/Life Technologies, Inc.) and 100 μg/mL of streptomycin (Gibco/Life Technologies, Inc.) under the conditions of 37° C. and 5% carbon dioxide gas. The DLD-1 cells were seeded in a 10 cm dish, and 20 μg of a luciferase gene plasmid pGL4.27 having a TCF responsive sequence inserted therein was transfected into the cells using 10 μL of Attractene (Qiagen, Inc.) according to the protocol attached to the product. A stably expressing cell line (DLD-1/TCF-Luc) was selected using […] of hygromycin B (Wako Pure Chemical Industries Ltd.). The DLD-1/TCF-Luc cells were detached with trypsin and seeded in a 384-well plate, and a test compound was added at different concentrations. After 18 hours, the luciferase activity was measured using Steady-Glo™ Luciferase Assay System (Promega, Inc.).
The inhibition ratio was obtained according to the following formula 1. The inhibition ratio (%) of the compound of the present invention at 1 μmol/L against the TCF-luciferase reporter using the Wnt pathway as an index is shown in Table 6. [Math. 1] Inhibition ratio (%)=100−{(luciferase activity when test compound was added)−(luciferase activity of blank)}/{(luciferase activity of control)−(luciferase activity of blank)}×100 Formula 1

Compound | Inhibition ratio (%) at 1 μmol/L
CNC(=O)c1ccc2c(N3CCC(CN4Cc5ccccc5N(c5cccc(C#N)c5)C4=O)CC3)ncnc2c1 [Compound 26, 4-(4-{[1-(3-Cyanophenyl)-2-oxo-1,2-dihydroquinazolin-3(4H)-yl]methyl}piperidin-1-yl)-N-methylquinazoline-7-carboxamido] | 77%
N#Cc1cc(N2C(=O)N(CC3CCN(c4ncnc5cnc(C(N)=O)cc45)CC3)Cc3ncccc32)ccc1F [Compound 46, 4-(4-{[1-(3-Cyano-4-fluorophenyl)-2-oxo-1,2-dihydropyrido[3,2-d]pyrimidin-3(4H)-yl]methyl}piperidin-1-yl)pyrido[3,4-d]pyrimidine-6-carboxamido] | 84%
N#Cc1cc(N2C(=O)N(CC3CCN(c4ncnc5cnc(C(N)=O)cc45)CC3)Cc3ccccc32)ccc1F [Compound 45, 4-(4-{[1-(3-Cyano-4-fluorophenyl)-2-oxo-1,2-dihydroquinazolin-3(4H)-yl]methyl}piperidin-1-yl)pyrido[3,4-d]pyrimidine-6-carboxamido] | 86%
N#Cc1cc(N2C(=O)N(CC3CCN(c4ncnc5cc(C(N)=O)ccc45)CC3)Cc3ccccc32)ccn1 [Compound 28, 4-(4-{[1-(2-Cyanopyridin-4-yl)-2-oxo-1,2-dihydroquinazolin-3(4H)-yl]methyl}piperidin-1-yl)quinazoline-7-carboxamido] | 84%
N#Cc1ccccc1CN1C(=O)N(CC2CCN(c3ncnc4cc5c(cc34)OCO5)CC2)Cc2ccccc21 [Compound 3, 2-[(3-{[1-([1,3]Dioxo[4,5-g]quinazolin-8-yl)piperidin-4-yl]methyl}-2-oxo-3,4-dihydroquinazolin-1(2H)-yl)methyl]benzo nitrile] | 77%
4-(3-{[1-(6-Aminopyrimido[3,4-d]pyrimidin-4-yl)piperidin-4-yl]methyl}-2-oxo-3,4-dihydroquinazolin-1(2H)-yl)picolinonitrile [Compound 33] | 82%

same assay, conditions: Homo sapiens, DLD-1, 18 h, read-out: Inhibition ratio (%) at 1 μmol/L

Compound | inhibition at 1 µM
CN1CCN(C(=O)c2ccc3c(N4CCC(CN5Cc6ccccc6N(c6ccnc(C#N)c6)C5=O)CC4)ncnc3c2)CC1 [Compound 27, 4-[3-({1-[7-(4-Methylpiperazine-1-carbonyl)quinazolin-4-yl]piperidin-4-yl}methyl)-2-oxo-3,4-dihydroquinazolin-1(2H)-yl]picolinonitrile] | 88%
N#Cc1cc(N2C(=O)N(CC3CCN(c4ncnc5[nH]ccc45)CC3)Cc3ccccc32)ccn1 [Compound 31, 4-(3-{[1-(7H-pyrrolo[2,3-d]pyrimidin-4-yl)piperidin-4-yl]methyl}-2-oxo-3,4-dihydroquinazolin-1(2H)-yl)picolinonitrile] | 74%
N#Cc1cccc(N2C(=O)N(CC3CCN(c4ncnc5c4COCC5)CC3)Cc3ccccc32)c1 [Compound 43, 3-(3-{[1-(7,8-Dihydro-5H-pyrano[4,3-d]pyrimidin-4-yl)piperidin-4-yl]methyl}-2-oxo-3,4-dihydroquinazolin-1(2H)-yl)benzonitrile] | 85%
N#Cc1cc(N2C(=O)N(CC3CCN(c4nccc5c(=O)[nH]cnc45)CC3)Cc3ccccc32)ccn1 [Compound 42, 4-(2-Oxo-3-{[1-(4-oxo-3,4-dihydropyrido[3,4-d]pyrimidin-8-yl)piperidin-4-yl]methyl}-3,4-dihydroquinazolin-1(2H)-yl)picolinonitrile] | 81%
N#Cc1cc(N2C(=O)N(CC3CCN(c4nccn5c(=O)[nH]nc45)CC3)Cc3ccccc32)ccn1 [Compound 39, 4-(2-Oxo-3-{[1-(3-oxo-2,3-dihydro-[1,2,4]triazolo[4,3-a]pyrazin-8-yl)piperidin-4-yl]methyl}-3,4-dihydroquinazolin-1(2H)-yl)picolinonitrile] | 89%

same assay, conditions: Homo sapiens; 1 μmol/L; DLD-1/TCF-Luc cells; luciferase activity after 18 hours; read-out: Inhibition ratio (%) at 1 μmol/L

Compound | inhibition at 1 µM
N#Cc1cc(N2C(=O)N(CC3CCN(c4ncnc5cnccc45)CC3)Cc3cc(F)cnc32)ccn1 [Compound 23, 4-(6-Fluoro-2-oxo-3-{[1-(pyrido[3,4-d]pyrimidin-4-yl)piperidin-4-yl]methyl}-3,4-dihydropyrido[2,3-d]pyrimidin-1(2H)-yl)picolinonitrile] | 84%
COc1cc2ncnc(N3CCC(Cn4c(=O)c5ccccc5n(-c5cccc(C#N)c5)c4=O)CC3)c2cc1OC [Compound 20, 3-(3-{[1-(6,7-Dimethoxyquinazolin-4-yl)piperidin-4-yl]methyl}-2,4-dioxo-3,4-dihydroquinazolin-1(2H)-yl)benzonitrile] | 83%
N#Cc1ccccc1CN1C(=O)N(CC2CCN(c3nnnc4ccccc34)CC2)Cc2ccccc21 [Compound 4, 2-[(3-{[1-(Benzo[d][1,2,3]triazin-4-yl)piperidin-4-yl]methyl}-2-oxo-3,4-dihydroquinazolin-1(2H)-yl)methyl]benzonitrile] | 74%
N#Cc1cc(N2C(=O)N(CC3CCN(c4nccc5nc[nH]c(=O)c45)CC3)Cc3cc(F)ccc32)ccn1 [Compound 49, 4-(6-Fluoro-2-oxo-3-{[1-(4-oxo-3,4-dihydropyrido[4,3-d]pyrimidin-5-yl)piperidin-4-yl]methyl}-3,4-dihydroquinazolin-1(2H)-yl)picolinonitrile] | 82%
COc1cc2ncnc(N3CCC(CN4Cc5ccccc5N(c5ccnc(C#N)n5)C4=O)CC3)c2cc1OC [Compound 11, 4-(3-{[1-(6,7-Dimethoxyquinazolin-4-yl)piperidin-4-yl]methyl}-2-oxo-3,4-dihydroquinazolin-1(2H)-yl)pyrimidine-2-carbonitrile] | 87%
N#Cc1ccc2c(c1)CN(CC1CCN(c3nccc4nc[nH]c(=O)c34)CC1)C(=O)N2c1ccnc(C(N)=O)c1 [Compound 51, 4-(6-Cyano-2-oxo-3-{[1-(4-oxo-3,4-dihydropyrido[4,3-d]pyrimidin-5-yl)piperidin-4-yl]methyl}-3,4-dihydroquinazolin-1(2H)-yl)picolinamide] | 90%
COc1cc2ncnc(N3CCC(CN4Cc5ccccc5N(c5ccnc(C(N)=O)c5)C4=O)CC3)c2cc1OC [Compound 14, 4-(3-{[1-(6,7-Dimethoxyquinazolin-4-yl)piperidin-4-yl]methyl}-2-oxo-3,4-dihydroquinazolin-1(2H)-yl)picolinamide] | 76%
N#Cc1cc(N2C(=O)N(CC3CCN(c4ncnc5cc(C(N)=O)ncc45)CC3)Cc3cnccc32)ccc1F [Compound 52, 4-(4-{[1-(3-Cyano-4-fluorophenyl)-2-oxo-1,2-dihydropyrido[4,3-d]pyrimidin-3(4H)-yl]methyl}piperidin-1-yl)pyrido[4,3-d]pyrimidine-7-carboxamido] | 81%
COc1cc2ncnc(N3CC(CN4Cc5ccccc5N(c5ccnc(C#N)c5)C4=O)C3)c2cc1OC [Compound 17, 4-(3-{[1-(6,7-Dimethoxyquinazolin-4-yl)azetidin-3-yl]methyl}-2-oxo-3,4-dihydroquinazolin-1(2H)-yl)picolinonitrile] | 76%
COc1cc2ncnc(N3CCC(CN4Cc5ccccc5N(c5cc(C#N)ccn5)C4=O)CC3)c2cc1OC [Compound 10, 2-(3-{[1-(6,7-Dimethoxyquinazolin-4-yl)piperidin-4-yl]methyl}-2-oxo-3,4-dihydroquinazolin-1(2H)-yl)isonicotinonitrile] | 79%
COc1cc2ncnc(N3CCC(NC4Cc5ccccc5N(c5ccnc(C#N)c5)C4=O)CC3)c2cc1OC (centres unmarked) [Compound 19, 4-{3-[1-(6,7-Dimethoxyquinazolin-4-yl)piperidin-4-ylamino]-2-oxo-3,4-dihydroquinolin-1(2H)-yl}picolinonitrile] | 91%
COc1cc2ncnc(N3CCC(CN4Cc5ccccc5N(c5cccc(C#N)c5)C4=O)CC3)c2cc1OC [Compound 6, 3-(3-{[1-(6,7-Dimethoxyquinazolin-4-yl)piperidin-4-yl]methyl}-2-oxo-3,4-dihydroquinazolin-1(2H)-yl)benzonitrile] | 76%
